Results as given in patent US8080529B2, “Macrolides with anti-inflammatory activity” (Glaxo Group Limited, priority 2005, dated 2011).

Key:
neutrophils = assay: Lung neutrophilia induced by bacterial lipopolysaccharide in male BALB/cJ mice: cells in BALF and lung tissue; assay type: in vivo; conditions: 5 mg i.p.; 24 hours after LPS
Experimental: (§1) Male BALB/cJ mice (Iffa Credo, France), with average weight 30 g were randomly grouped (n=7 in testing group, 8 in positive control, 7 in negative control). Mice were administered intraperitoneally (i.p.) a single dose of 5 or 2.5 mg of test compound. Two hours after administration, 2 μg of bacterial lipopolysaccharide (LPS), dissolved in PBS in a volume of 60 μL, was intranasally administered to all experimental groups except the negative control group, which received the same volume (60 μL) of vehicle PBS. Animals were sacrificed approximately 24 hours after application of LPS in order to obtain bronchoalveolar lavage fluid (BALF), which was used to determine concentrations of IL-6 and TNF-α, absolute number of cells, and the percentage of neutrophils in BALF. Results are expressed as percentage of decrease of total cell number, relative number of neutrophils, and TNF-α, and IL-6 concentration in BALF of treated animals compared to positive control (LPS stimulated, but untreated animals).
(§2) Results are expressed as percentage of decrease of total cell number, relative number of neutrophils, and TNF-alpha and IL-6 concentration in BALF of treated animals compared to positive control (LPS stimulated, but untreated animals).
Besides accumulation of inflammatory cells in BALF, the extent and anatomic site of pulmonary inflammation induced by LPS was assessed 24 hours after PBS or LPS exposure. Accumulation of granulocytes and mononuclear cells in peribronchial (PB) and perivascular (PV) lung tissue areas and in alveolar spaces was monitored following sacrifice of the animals.

TNF-α = assay: Lung neutrophilia induced by bacterial lipopolysaccharide in male BALB/cJ mice: TNF-α in BALF; assay type: in vivo; conditions: 5 mg i.p.; 24 hours after LPS
Experimental: as §1, §2

IL-5 = assay: Inhibition of IL-5 production by PHA-stimulated human PBMC in vitro; assay type: cell-based; conditions: 3 days
Experimental: (§3) Heparinized peripheral blood was obtained from healthy donors, and peripheral blood mononuclear cells (PBMC) were isolated by Histopaque 1077 (Sigma, USA) density centrifugation at 400×g for 30 minutes. Collected PBMC were centrifuged in plasma at 400×g for 10 min, resuspended and washed in RPMI 1640 (Institute of Immunology, Croatia) by centrifugation.
(§4) Peripheral blood mononuclear cells (PBMC), isolated as described above, were seeded in a 48-well plate at a concentration of 1×10^6 cells per well in the RPMI culture medium described above. Cells were stimulated with 10 μg/mL phytohaemagglutinin (PHA) (Sigma, USA) and incubated at 37° C., 5% CO2 in 90% humidity with tested compounds (10 and 50 μM) for 3 days. Cytokine concentrations were determined in supernatants by sandwich ELISA, using capture and detection antibodies (R&D, USA) according to the manufacturer's recommendations.
(§5) Inhibition (as percentage) was calculated using the following formula: % inhibition=(1−concentration of cytokines in sample/concentration of cytokines in positive control)×100.
(§6) The positive control refers to LPS-, PMA- or zymosan-stimulated samples that were not treated with test compounds.

IL-6 = assay: Lung neutrophilia induced by bacterial lipopolysaccharide in male BALB/cJ mice: IL-6 in BALF; assay type: in vivo; conditions: 5 mg i.p.; 24 hours after LPS
Experimental: as §1, §2

granulocytes = assay: Inhibition of degranulation of granulocytes (free neutrophil elastase activity); assay type: cell-based, human
Experimental: Granulocytes were obtained from heparinized whole blood using density gradiant centrifugation. Erythrocytes were sedimented on 3% dextran T-500 (Amersham Pharmacia Biotech AB, Uppsala, Sweden). Leukocytes were centrifuged on Ficoll (Amersham Pharmacia Biotech AB, Uppsala, Sweden) for 35 min at 600 g at 20° C. The pellet of granulocytes was cleared from remaining erythrocytes by a brief hypotonic lysis.
1×10^6 granulocytes, isolated as described above, were resuspended in RPMI-1640 medium (Institute of Immunology, Croatia), and were incubated with 10 or 50 μM of test compound together with cytochalasine B (5 μg/mL) for 2 h at 37° C. Degranulation then was induced by the addition of 0.1 μM fMLP (Sigma, USA) or 0.5 μM A23187 (Calbiochem, USA). The activity of free neutrophil elastase was determined with a chromogenic substrate specific for human neutrophil elastase, such as N-(methoxysuccinyl)-L-alanyl-L-alanyl-L-prolyl-L-valine 4-nitroanilide (Sigma Chemical Company, St Louis, Mo., USA). Elastase activity, as a marker of primary granules, was assessed in supernatant using a spectrophotometer at an absorbance of 405 nm.
Results are expressed as the percent of inhibition of degranulation in unstimulated cells, and in stimulated cells treated with fMLP or A23187.

IL-2 = assay: Inhibition of IL-2 production by PHA-stimulated human PBMC in vitro; assay type: cell-based; conditions: 3 days
Experimental: as §3, §4, §5, §6

LPS-induced septic shock = assay: Septic shock induced by bacterial lipopolysaccharide in male BALB/cJ mice; assay type: in vivo; conditions: 24 hours
Experimental: Male BALB/cJ mice, (Iffa Credo, Lyon, France) 8 weeks old, weighing 25 g were randomly grouped (n=10 in testing groups and 15 in control group). Animals were primed with 4 μg bacterial lipopolysaccharide (LPS) that was dissolved in saline and administered i.pl. After 18-24 hours animals were challenged by an intravenous injection of 90 μg LPS in a volume of 0.2 mL. Animals were treated with the test compounds or the vehicle (control) intraperitoneally . . . or per os 30 min prior to each injection of LPS. Survival throughout 24 hours was monitored.

In the case of `CCC1OC(=O)C(C)C(OC2CC(C)(OC)C(OC(=O)CCN(CC)CC)C(C)O2)C(C)C(OC2OC(C)CC(N(C)C)C2O)C(C)(OC)CC(C)C(=O)NC(C)C(O)C1(C)O` (centres unmarked) [Example 8, 4″-O-(3-Diethylamino-propionyl)-6-O-methyl-9a-aza-9a-homoerythromycin A], the “% decrease of neutrophils in BALF” value (neutrophils) is reported as 52%, the “% decrease of total cell no. in BALF” value (neutrophils) is reported as 84% and the “Percentage of decrease of TNF-α concentration in BALF” value (TNF-α) is reported as 69%. For the same molecule, the “Percentage of inhibition of IL-5 production” value (IL-5; 10 μM) was 34%, the “Percentage of inhibition of IL-5 production” value (IL-5; 50 μM) was 85% and the “Percentage of decrease of IL-6 concentration in BALF” value (IL-6) was 67%. For the same molecule, the “Percentage of inhibition of degranulation of granulocytes” value (granulocytes; A23187 0.5 μM, compound 10 μM) was 10%, the “Percentage of inhibition of degranulation of granulocytes” value (granulocytes; A23187 0.5 μM, compound 50 μM) was 24% and the “Percentage of inhibition of degranulation of granulocytes” value (granulocytes; fMLP 0.1 μM, compound 10 μM) was 52%. The “Percentage of inhibition of degranulation of granulocytes” value (granulocytes; fMLP 0.1 μM, compound 50 μM) was 72%, the “Percentage of inhibition of IL-2 production” value (IL-2; 10 μM) was 100% and the “Percentage of inhibition of IL-2 production” value (IL-2; 50 μM) was 100%. For the same molecule, the “Survival (%)” value (LPS-induced septic shock; 10 mg/kg i.p.) was 50% and the “Survival (%)” value (LPS-induced septic shock; 100 mg/kg p.o.) was 100%.
